According to the NIST ThermoML archive (doi:10.1016/j.jct.2012.06.031):
Numbers after ± are expanded uncertainties.

Experiment: xn = mol fraction of the nth substance listed
Settings: 101 kPa, Liquid; for viscosity: Concentric cylinders viscometry; for mass density: Vibrating tube method

CC(O)CO (stereo not given) [1,2-propanediol] + c1ccncc1
Settings	mass density [kg/m3]	viscosity [mPa·s]
288.15 K, x2 = 0	1040.08 ± 0.14	81.21 ± 0.6
288.15 K, x2 = 0.1	1035.59 ± 0.13	52.73 ± 0.19
288.15 K, x2 = 0.2	1030.94 ± 0.13	33 ± 0.16
288.15 K, x2 = 0.2999	1026.33 ± 0.13	20.08 ± 0.095
288.15 K, x2 = 0.4	1021.39 ± 0.12	12.08 ± 0.056
288.15 K, x2 = 0.4999	1016.46 ± 0.12	7.326 ± 0.034
288.15 K, x2 = 0.6	1011.23 ± 0.12	4.547 ± 0.022
288.15 K, x2 = 0.7001	1005.6 ± 0.12	3 ± 0.015
288.15 K, x2 = 0.8	999.698 ± 0.12	1.935 ± 0.012
288.15 K, x2 = 0.9	994.093 ± 0.12	1.391 ± 0.0099
293.15 K, x2 = 0	1036.46 ± 0.14	58.75 ± 0.25
293.15 K, x2 = 0.1	1031.78 ± 0.13	38.74 ± 0.18
293.15 K, x2 = 0.2	1026.95 ± 0.13	24.82 ± 0.12
293.15 K, x2 = 0.2999	1022.18 ± 0.13	15.55 ± 0.07
293.15 K, x2 = 0.4	1017.12 ± 0.12	9.643 ± 0.043
293.15 K, x2 = 0.4999	1012.06 ± 0.12	6.036 ± 0.027
293.15 K, x2 = 0.6	1006.71 ± 0.12	3.857 ± 0.018
293.15 K, x2 = 0.7001	1000.96 ± 0.12	2.588 ± 0.013
293.15 K, x2 = 0.8	994.925 ± 0.12	1.736 ± 0.011
293.15 K, x2 = 0.9	989.201 ± 0.12	1.274 ± 0.0095
298.15 K, x2 = 0	1032.8 ± 0.14	43.44 ± 0.2
298.15 K, x2 = 0.1	1027.92 ± 0.13	29.09 ± 0.14
298.15 K, x2 = 0.2	1022.93 ± 0.13	19.05 ± 0.087
298.15 K, x2 = 0.2999	1018.01 ± 0.12	12.15 ± 0.055
298.15 K, x2 = 0.4	1012.81 ± 0.12	7.822 ± 0.035
298.15 K, x2 = 0.4999	1007.63 ± 0.12	5.021 ± 0.023
298.15 K, x2 = 0.6	1002.16 ± 0.12	3.31 ± 0.016
298.15 K, x2 = 0.7001	996.296 ± 0.12	2.292 ± 0.013
298.15 K, x2 = 0.8	990.138 ± 0.12	1.567 ± 0.01
298.15 K, x2 = 0.9	984.298 ± 0.12	1.171 ± 0.0093
303.15 K, x2 = 0	1029.09 ± 0.14	32.75 ± 0.15
303.15 K, x2 = 0.1	1024.03 ± 0.13	22.28 ± 0.1
303.15 K, x2 = 0.2	1018.88 ± 0.13	14.9 ± 0.068
303.15 K, x2 = 0.2999	1013.81 ± 0.12	9.81 ± 0.044
303.15 K, x2 = 0.4	1008.48 ± 0.12	6.396 ± 0.029
303.15 K, x2 = 0.4999	1003.18 ± 0.12	4.234 ± 0.02
303.15 K, x2 = 0.6	997.549 ± 0.12	2.866 ± 0.014
303.15 K, x2 = 0.7001	991.612 ± 0.12	2.008 ± 0.012
303.15 K, x2 = 0.8	985.331 ± 0.12	1.425 ± 0.0099
303.15 K, x2 = 0.9	979.376 ± 0.12	1.082 ± 0.009
308.15 K, x2 = 0	1025.34 ± 0.13	25.16 ± 0.12
308.15 K, x2 = 0.1	1020.1 ± 0.13	17.37 ± 0.08
308.15 K, x2 = 0.2	1014.79 ± 0.13	11.85 ± 0.054
308.15 K, x2 = 0.2999	1009.58 ± 0.12	7.981 ± 0.036
308.15 K, x2 = 0.4	1004.12 ± 0.12	5.363 ± 0.025
308.15 K, x2 = 0.4999	998.699 ± 0.12	3.638 ± 0.017
308.15 K, x2 = 0.6	992.998 ± 0.12	2.514 ± 0.013
308.15 K, x2 = 0.7001	986.903 ± 0.12	1.795 ± 0.011
308.15 K, x2 = 0.8	980.506 ± 0.12	1.301 ± 0.0096
308.15 K, x2 = 0.9	974.443 ± 0.12	1.002 ± 0.0089
313.15 K, x2 = 0	1021.55 ± 0.13	19.65 ± 0.09
313.15 K, x2 = 0.1	1016.14 ± 0.13	13.76 ± 0.063
313.15 K, x2 = 0.2	1010.67 ± 0.13	9.567 ± 0.043
313.15 K, x2 = 0.2999	1005.32 ± 0.12	6.581 ± 0.03
313.15 K, x2 = 0.4	999.722 ± 0.12	4.523 ± 0.021
313.15 K, x2 = 0.4999	994.186 ± 0.12	3.137 ± 0.015
313.15 K, x2 = 0.6	988.375 ± 0.12	2.218 ± 0.012
313.15 K, x2 = 0.7001	982.171 ± 0.12	1.613 ± 0.01
313.15 K, x2 = 0.8	975.66 ± 0.12	1.193 ± 0.0093
313.15 K, x2 = 0.9	969.488 ± 0.12	0.9311 ± 0.0087
318.15 K, x2 = 0	1017.73 ± 0.13	15.58 ± 0.071
318.15 K, x2 = 0.1	1012.14 ± 0.13	11.07 ± 0.05
318.15 K, x2 = 0.2	1006.51 ± 0.12	7.833 ± 0.036
318.15 K, x2 = 0.2999	1001.02 ± 0.12	5.495 ± 0.025
318.15 K, x2 = 0.4	995.298 ± 0.12	3.855 ± 0.018
318.15 K, x2 = 0.4999	989.644 ± 0.12	2.729 ± 0.014
318.15 K, x2 = 0.6	983.722 ± 0.12	1.972 ± 0.012
318.15 K, x2 = 0.7001	977.41 ± 0.12	1.459 ± 0.01
318.15 K, x2 = 0.8	970.792 ± 0.12	1.098 ± 0.0091
318.15 K, x2 = 0.9	964.514 ± 0.12	0.8674 ± 0.0086
323.15 K, x2 = 0	1013.86 ± 0.13	12.55 ± 0.058
323.15 K, x2 = 0.1	1008.1 ± 0.13	9.082 ± 0.041
323.15 K, x2 = 0.2	1002.32 ± 0.12	6.551 ± 0.03
323.15 K, x2 = 0.2999	996.693 ± 0.12	4.678 ± 0.022
323.15 K, x2 = 0.4	990.839 ± 0.12	3.349 ± 0.016
323.15 K, x2 = 0.4999	985.073 ± 0.12	2.416 ± 0.013
323.15 K, x2 = 0.6	979.044 ± 0.12	1.786 ± 0.011
323.15 K, x2 = 0.7001	972.625 ± 0.12	1.341 ± 0.0097
323.15 K, x2 = 0.8	965.9 ± 0.12	1.022 ± 0.0089
323.15 K, x2 = 0.9	959.522 ± 0.12	0.8177 ± 0.0084
